Experimental data as given in the METLIN SMRT retention time set (Domingo-Almenara et al. 2019).

Experiment: gradient 5% acetonitrile 3 min, to 50% in 2 min, to 85% in 15 min, held 3 min, 100 µL/min
Conditions: column: Zorbax Extend-C18 2.1 x 50 mm; eluents: water / acetonitrile, 0.1% formic acid
How it was run: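 Values are retention times taken from adduct peaks that software picked and an analyst inspected. The pure standards were run as mixtures of ~100 molecules on HPLC linked to a quadrupole time-of-flight mass spectrometer, in positive and negative ionization mode. A Zorbax Extend-C18 column (2.1 × 50 mm, 1.8 μm) was used at 100 μL/min with water and acetonitrile, each including 0.1% formic acid.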

Row | Structure (SMILES) | RP-LC retention time [s]
1 | COC(=O)c1cc(C)nc2c1c(=O)n(Cc1nc(-c3ccccc3OC)oc1C)c(=O)n2C | 971
2 | COC(=O)c1c(C)[nH]c(C(=O)N2CCC(CC(=O)NCCN3CCOCC3)CC2)c1C | 584
3 | Cn1cc(S(=O)(=O)N2CCC(C(=O)N3CCCC3)CC2)cc1C(=O)N1CCCCC1 | 681
4 | CC(C)c1ccc(S(=O)(=O)N2CCC(n3c(-c4ccco4)nc4cccnc43)C2)cc1 (stereo unspecified) | 1060
5 | O=C(CSc1ccc(N2CCCC(C(=O)NC3CC3)C2)nn1)Nc1ccc(Cl)cc1 (stereo unspecified) | 682
6 | O=C(CNC(=O)c1cccc(F)c1)Nc1nc2ccccc2[nH]1 | 613
7 | Cc1ccccc1C(=O)N1CCC2(CC1)NCc1ccccc1-n1ccnc12 | 609
8 | O=c1c2cc(-c3ccc(F)cc3)nn2ccn1CC(O)c1ccc2c(c1)OCO2 (stereo unspecified) | 864
9 | CC(C)n1c(N2CCN(C(=O)c3ccc(Br)o3)CC2)cc(=O)n(C(C)C)c1=O | 870
10 | COc1ccc(Cl)cc1Nc1c(-c2nc(C)no2)cnc2nc(C)ccc12 | 794
11 | O=C(c1cccnc1)N1CCC(COCc2ccccc2)CC1 | 747
12 | O=C(Cn1cnc(-c2noc(-c3ccncc3)n2)c1)NCc1ccc(F)cc1 | 654
13 | CNC(=O)C1CN(C(=O)c2ccccc2C(F)(F)F)CC12CCCC2 (stereo unspecified) | 609
14 | CCOc1ccc2nc(C(=O)NCCN3CCc4ccccc4C3)cn2n1 | 577
15 | COC(=O)C1=CN(c2ccc(OC)c(OC)c2)c2ccccc2S1(=O)=O | 763
16 | CCCNC(=O)c1n[nH]c2c1CC(C)CC2 (stereo unspecified) | 740
17 | O=C([C@@H]1C[C@H](Oc2ccccc2)CN1C(=O)c1ccsc1)N1CCCC1 | 756
18 | COc1ccccc1NC(=O)N1CCOc2ccc(C)cc21 | 1040
19 | COC(=O)c1[nH]c(C)c(C(=O)C(C)N(CC(C)C)C(=O)c2ccc(OC)cc2)c1C (stereo unspecified) | 859
20 | Cc1cc2c(c(=O)n(-c3ccc(F)cc3)c(=O)n2CC(=O)Nc2cccc(C(C)C)c2)n1C | 921
21 | CC(C)OCCCNC(=O)CCc1c(-c2ccc(F)cc2)nc2ccccn12 | 622
22 | CCc1noc(NC(C)=O)c1-c1ccc(OC)c(S(=O)(=O)Nc2cc(C)cc(C)c2)c1 | 852

Row | Structure (SMILES) | RP-LC retention time [s]
23 | Cn1c(C2CCN(C(=O)c3cc4c(s3)CCCC4)C2)nc2cccnc21 (stereo unspecified) | 797
24 | COc1ccc(-c2nc(COc3cc(C(F)(F)F)c4c(C)nn(C)c4n3)c(C)o2)cc1OC | 1190
25 | Cc1cc(NC(=O)c2cc(Cl)sc2Cl)n(C(C)C)n1 | 810
26 | COc1ccc(CC(C)(O)CNC(=O)c2cc(Br)ccc2Cl)cc1 (stereo unspecified) | 822
27 | Cc1ccc(S(=O)(=O)N2CCC(CCNC(=O)NCCC(C)C)CC2)cc1 | 715
28 | CCn1nccc1C(=O)Nc1ccc2c(c1)OCO2 | 693
29 | O=C(Nc1ccccc1F)N1CCCC(Cn2c(C3CC3)nc3cccnc32)C1 (stereo unspecified) | 656
30 | O=C(NCCc1ccccc1)N1CCCC1c1nc(-c2cccc(Cl)c2)no1 (stereo unspecified) | 1050
31 | O=C(CCc1cc2ccccc2[nH]c1=O)NCCN1CCc2ccccc2C1 | 607
32 | CCCCCCC(=O)Nc1nc(-c2ccc(Cl)cc2)cs1 | 1270
33 | Cc1ccc(-c2nc3cnccn3c2Nc2cccc(C(=O)O)c2)cc1 | 711
34 | O=C(Nc1ccccc1)c1nnc(CSCC(=O)N2CCN(c3ccccn3)CC2)s1 | 631
35 | Cc1nc(-c2cn(C(C)C)c3ncccc23)sc1C(=O)Nc1cccc(F)c1 | 1140
36 | CC(=O)N1CCc2ccccc2C1C(=O)N1CCN(c2ccccn2)CC1 (stereo unspecified) | 587
37 | Cc1cccc(CNC(=O)c2ccc3c(c2)CC(=O)N3C)c1 | 742
38 | CCCc1ccc(S(=O)(=O)N2CCC3(CC2)NCCN=C3NCc2ccc(C)cc2)cc1 | 846
39 | COc1ccc2c(c1)[C@]13CCCC[C@@H]1[C@H](C2)N(C)CC3 | 732
40 | CCc1ccc(-c2cn3cc(C(=O)N(CC)CC)ccc3n2)cc1 | 675
41 | Cn1cc(-c2cc3n(n2)CCCN3C(=O)CCC(=O)NCCCN2CCCC2)c2ccccc21 | 620
42 | O=C(Nc1cnn(-c2ncc(N3CCSCC3)cn2)c1)C1CCCC1 | 737
43 | CC(C)CN(CC(C)C)C(=O)CCCN1C(=O)c2ccccc2C1=O | 947
44 | CC(C)Cn1cc(S(=O)(=O)NCc2ccccc2Cl)c2cccnc21 | 1020

Row | Structure (SMILES) | RP-LC retention time [s]
45 | O=C(C1COc2ccccc2O1)N1CCc2cc(-c3csc(C4CC4)n3)ccc21 (stereo unspecified) | 1190
46 | Cc1cc(F)ccc1NC(=O)C1CCN(S(=O)(=O)c2ccc3c(c2)sc(=O)n3C)CC1 | 844
47 | CC(Oc1cc(O)c2c(=O)cc(-c3ccccc3)oc2c1)C(=O)c1ccccc1 (stereo unspecified) | 1210
48 | COc1ccc(OC)c(NS(=O)(=O)c2cc(-c3nc(C)cs3)n(CC(=O)N3CCCC3)c2)c1 | 903
49 | O=C(Cc1ccc(Cl)cc1)NC1CCN(c2cc(-c3cccs3)[nH]n2)C1 (stereo unspecified) | 749
50 | Cc1cccc(N2CCN(C(=O)Cn3c(=O)c4nnc(C)n4c4ncccc43)CC2)c1 | 738
51 | CC(=O)N1CCc2ccccc2C1C(=O)NCc1ccccc1C (stereo unspecified) | 788
52 | COc1ccc(-n2ccnc(NC(=O)Nc3ccc(F)c(Cl)c3)c2=O)cc1 | 1020
53 | COc1ccc(-c2nnc(-c3ccc(OC)c(S(=O)(=O)N4CCCC4)c3)o2)cc1OC | 844
54 | CC1CCC(NC(=O)C2CCN(S(=O)(=O)c3ccc4c(c3)NC(=O)C(C)O4)CC2)CC1 (stereo unspecified) | 876
55 | CCN(C(=O)CN1C(=O)NC(c2ccc(C)cc2)C2=C1COC2=O)c1cccc(C)c1 (stereo unspecified) | 817
56 | COCc1noc([C@@H]2CN(Cc3cccc(OC)n3)C[C@H]2COC)n1 | 612
57 | COC(=O)C(Cc1ccccc1)NC(=O)C(NC(=O)OCc1ccccc1)C(C)C (stereo unspecified) | 894
58 | Cc1ccc(-c2cnc(N3CCCC(C(=O)NCc4ccc5c(c4)OCO5)C3)nc2)cc1 (stereo unspecified) | 1060
59 | COc1ccc(-c2csc(NC(=O)Nc3c(F)cccc3F)n2)cc1OC | 770
60 | CCc1nc2c(=O)n(CC(=O)N3CCCC(C)C3)nc(C)c2s1 (stereo unspecified) | 726
61 | C=CCOC(=O)COc1ccc2c(=O)c(-c3ccc(Cl)cc3)coc2c1 | 1020
62 | CCc1nc(-c2ccc3c(c2)CCN3C(=O)COc2ccc(OC)cc2)no1 | 1000
63 | CC(C)c1ccc(-c2noc(N3CCC(C(=O)NC4CCCCC4)CC3)n2)cc1 | 1180
64 | CCCNc1cc(N2CCC(CCC(=O)Nc3ccccc3)CC2)ncn1 | 704
65 | CC1CCN(c2nc(=O)n(CC(=O)Nc3ccc4c(c3)OCCO4)c3ccccc23)CC1 | 812
66 | CCNC(=O)C1CCN(c2nc3ccc(-c4ccccc4)nc3s2)CC1 | 835
